Source: PMC6367500, “18β-glycyrrhetyl-3-O-sulfate would be a causative agent of licorice-induced pseudoaldosteronism” (Scientific Reports, 2019)

Experiments:
[1] = design: method as in PMID 17331546; conditions: guinea pigs; cited from earlier work
[2] = Biliary excretion of GA metabolites in SD rats injected i.v. with GA; type: in vivo; conditions: GA 0.2 mg/kg i.v.
Description: Figure 3 Pharmacokinetic profiles of GL metabolites in SD rats (A,C,E,F) and EHBRs (B,D) after the administration of GA. GA (200 mg/kg) was administered orally to anesthetized SD rats or EHBRs, and plasma and urine were collected for 12 h (A–D). GA (0.2 mg/kg) was intravenously injected into anesthetized SD rats in which the biliary tract was cannulated. Then, bile samples were collected for 4 h (E). GA (0.2 mg/kg) was intravenously injected into conscious SD rats, and the feces was collected for 24 h. […] Since the determined lavels of 3MGA for B and D, 3 for C, GA for D, and all compounds except for 3 for E were relatively low; their magnified versions of their graphs are shown at the top or as an inside of each graph. The concentrations of GA metabolites were measured by LC-MS/MS, and data are plotted as mean ± S.E. (n = 4 for A–D,F; n = 3 for E).
GA, 3MGA, and compounds 1–3 were gradually excreted into the bile in SD rats injected i.v. with GA (0.2 mg/kg) and the accumulation of 3 in the bile at 4 h was 12-, 1.5 × 10^3-, 32-, and 15-fold those of GA, 3MGA, 1, and 2, respectively (Fig. 3E). […] GA, 3, and 2 were found in the feces of SD rats collected for 24 h after the i.v. injection of GA (0.2 mg/kg), while 3MGA and 1 were not found in the feces (Fig. 3F).
Female SD rats or EHBRs (9-week-old) were anesthetized by an intraperitoneal (i.p.) injection of urethane (1 g/kg) and their jugular veins were exposed. GA suspended in 0.5% CMC was then administered orally (200 mg/kg) to the unconscious rats, and blood samples were collected from the jugular vein; urine samples were collected using a metabolic cage at an appropriate time over a 12-h period. […] Feces were homogenized in phosphate-buffered saline (PBS; 0.15 M, pH 7.2), centrifuged (1.2 × 10^4 g, 10 min), and the supernatants were collected. After 1 week as a washout period, female SD rats were anesthetized by an i.p. injection of urethane (1 g/kg) and their biliary tract was cannulated. GA (0.2 mg/kg) was injected into the jugular vein, and the bile was collected every hour for 4 h. Aliquots (10 µl) of plasma, urine, homogenate of feces, or bile were mixed with 20 µl of subtilisin (0.91 U/ml) and incubated at 37 °C for 30 min, followed by the addition of 70 µl of astragaloside IV solution (1 µg/ml in ethanol containing 0.5% formic acid, used as internal standard), and kept at −20 °C for 30 min. […] The transitions (precursor to daughter) monitored and retention times were as follows: ESI(+) 743.4 to 567.5 m/z for compound 1 (5.5 min), ESI(−) 565.5 to 96.5 m/z for 2 (6.2 min), ESI(−) 549.5 to 96.5 m/z for 3 (8.1 min), ESI(+) 647.6 to 453.6 m/z for 3MGA (9.2 min), ESI(+) 471.3 to 91.0 m/z for GA (8.8 min), ESI(+) 823.5 to 453.6 m/z for GL (10.8 min), and ESI(+) 785.4 to 143.0 m/z for astragaloside IV (3.0 min). Linear regressions over the concentration range of 32 nM to 20 µM for each compound were examined using the peak-area ratio of the compounds to their internal standards and the least-squares method (r^2 > 0.98).

Structure (SMILES) | hypokalemia after i.v. injection [1] | rank among GA metabolites eliminated into bile [2] | accumulation in bile at 4 h relative to that of 1 ([2]; biliary tract cannulated) [fold] | accumulation in bile at 4 h relative to that of 2 ([2]; biliary tract cannulated) [fold] | accumulation in bile at 4 h relative to that of 3MGA ([2]; biliary tract cannulated) | accumulation in bile at 4 h relative to that of GA ([2]; biliary tract cannulated) [fold]
CC1(C)[C@@H](O[C@@H]2O[C@H](C(=O)O)[C@@H](O)[C@H](O)[C@H]2O)CC[C@]2(C)[C@H]3C(=O)C=C4[C@@H]5C[C@@](C)(C(=O)O)CC[C@]5(C)CC[C@@]4(C)[C@]3(C)CC[C@@H]12 [3MGA, 3-monoglucuronyl glycyrrhetinic acid, reference compound] | caused hypokalemia | – | – | – | – | –
CC1(C)[C@@H](OS(=O)(=O)O)CC[C@]2(C)[C@H]3C(=O)C=C4[C@@H]5C[C@@](C)(C(=O)O)CC[C@]5(C)CC[C@@]4(C)[C@]3(C)CC[C@@H]12 [compound 3, 18β-glycyrrhetyl-3-O-sulfate] | – | major metabolite of GA eliminated into the bile | 32 | 15 | 1.5 × 10^3 fold | 12
